target: recombinant human 5′-nucleotidase (CD73) (Homo sapiens (Human), UniProt P21589); experiment: Inhibition of CD73 enzyme activity in vitro (Malachite Green phosphate detection, CMP substrate); settings: 0.34 nM recombinant human CD73, 2 h pre-incubation at 37° C., 45 μM CMP; read-out: IC50 values of biochemical inhibition of CD73 enzymatic activity
Experimental: Test Example 1, Test of the Compounds of the Present Invention for their Inhibition on CD73 Enzyme Activity In Vitro
CD73 enzyme, an ecto-5′-Nucleotidase, converts extracellular nucleoside-5′-monophosphates to nucleosides, with AMP or CMP as the preferred substrate. In this assay, recombinant human CD73 expressed from a Chinese hamster ovary cell line (R&D Systems) was used to convert cytidine monophosphate (CMP) to cytidine and phosphate. Before adding substrate, CD73 enzyme was pre-incubated with compounds for 2 hours. The amount of phosphate was then measured by Malachite Green Phosphate Detection Kit. The experimental method is summarized as follows:
Compounds are first dissolved in DMSO to 10 mM as a stock solution. When determining the IC50 of the compound, prepare 3-fold serial dilutions with a highest concentration of 125 μM for a total of 12 concentration points and ensure each dilution containing equal amount of DMSO. In each well of 384-well plate, 0.34 nM of recombinant human 5′-nucleotidase (CD73) was pre-incubated at 37° C. for 2 hours with the compounds tested in assay buffer containing 20 mM HEPES buffer (pH 7.4), 137 mM NaCl, 0.001% Tween 20. The final reaction volume of the reaction in each well was 12 μL. The highest concentration of compound was 125 μM and the DMSO concentration was 1.25%. After pre-incubation, 3 μL of CMP dissolved in assay buffer was added to each reaction. The final CMP concentration was 45 μM. The reaction was incubated at 37° C. for 15 minutes. Then 3 μL of Malachite Green Reagent A was added to each reaction. Spin the plate briefly in centrifuge for 30 seconds. After incubation for additional 10 minutes at room temperature, 3 μL of malachite green Reagent B was added to each reaction. Spin the plate briefly in centrifuge for 30 seconds. After 20 minutes of incubation at room temperature, the signal was read on a TECAN reader at OD620. The reaction containing CD73 enzyme, substrate CMP and DMSO (no compound) is used as an assay positive control while the reaction containing substrate CMP and DMSO without the CD73 enzyme as an assay negative control. IC50 values were calculated by plotting the logarithm of the compound concentration and the percent inhibition using the appropriate program in GraphPad Prism.
The biochemical inhibitions of CD73 enzymatic activities by the compounds of the present invention were determined by the assay described above, and the resulting IC50 values are shown in Table 1.

Chain of recombinant human 5′-nucleotidase (CD73) (P21589 27-574): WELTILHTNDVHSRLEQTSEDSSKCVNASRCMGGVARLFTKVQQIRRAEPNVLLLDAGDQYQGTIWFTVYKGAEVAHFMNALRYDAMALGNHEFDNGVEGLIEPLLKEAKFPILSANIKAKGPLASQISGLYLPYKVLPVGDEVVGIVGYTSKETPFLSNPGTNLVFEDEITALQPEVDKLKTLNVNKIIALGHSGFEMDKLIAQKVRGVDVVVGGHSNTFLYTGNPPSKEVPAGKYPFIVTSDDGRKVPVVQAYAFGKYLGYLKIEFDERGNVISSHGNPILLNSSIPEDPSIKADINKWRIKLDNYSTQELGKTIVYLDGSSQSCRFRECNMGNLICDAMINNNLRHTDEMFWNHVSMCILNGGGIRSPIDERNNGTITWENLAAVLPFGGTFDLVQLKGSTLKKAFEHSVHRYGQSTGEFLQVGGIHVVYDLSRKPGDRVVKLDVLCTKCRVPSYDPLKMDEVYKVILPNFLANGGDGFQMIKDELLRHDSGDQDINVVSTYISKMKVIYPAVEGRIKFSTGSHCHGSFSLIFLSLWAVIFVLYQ

| SMILES | IC50 [nM] |
| --- | --- |
| O=P(O)(O)COC[C@H]1O[C@@H](n2ncc3c(N4CC5(CCCCC5)C4)nc(Cl)nc32)[C@H](O)[C@@H]1O [Example 1, ((((2R,3S,4R,5R)-5-(6-chloro-4-(2-azaspiro[3.5]nonan-2-yl)-1H-pyrazolo[3,4-d]pyrimidin-1-yl)-3,4-dihydroxytetrahydrofuran-2-yl)methoxy)methyl)phosphonic acid] | 0.11 |
| O=P(O)(O)COC[C@H]1O[C@@H](n2ncc3c(N4CC5(CCc6ccccc65)C4)nc(Cl)nc32)[C@H](O)[C@@H]1O [Example 2, ((((2R,3S,4R,5R)-5-(6-chloro-4-(2′,3′-dihydrospiro[azetidine-3,1′-inden]-1-yl)-1H-pyrazolo[3,4-d]pyrimidin-1-yl)-3,4-dihydroxytetrahydrofuran-2-yl)methoxy)methyl)phosphonic acid] | 0.013 |
| CC(C)OC(=O)OCOP(=O)(O)COC[C@H]1O[C@@H](n2ncc3c(N4CC5(CCc6ccccc65)C4)nc(Cl)nc32)[C@H](O)[C@@H]1O [Example 3, ((((((2R,3S,4R,5R)-5-(6-chloro-4-(2′,3′-dihydrospiro[azetidine-3,1′-inden]-1-yl)-1H-pyrazolo[3,4-d]pyrimidin-1-yl)-3,4-dihydroxytetrahydrofuran-2-yl)methoxy)methyl)(hydroxy)phosphoryl)oxy)methyl isopropyl carbonate] | 2.1 |
| CC(C)OC(=O)OCOP(=O)(COC[C@H]1O[C@@H](n2ncc3c(N4CC5(CCc6ccccc65)C4)nc(Cl)nc32)[C@H](O)[C@@H]1O)OCOC(=O)OC(C)C [Example 4, ((((((2R,3S,4R,5R)-5-(6-chloro-4-(2′,3′-dihydrospiro[azetidine-3,1′-inden]-1-yl)-1H-pyrazolo[3,4-d]pyrimidin-1-yl)-3,4-dihydroxytetrahydrofuran-2-yl)methoxy)methyl)phosphoryl)bis(oxy))bis(methylene) diisopropyl decarbonate] | 710 |
| O=P(O)(O)COC[C@H]1O[C@@H](n2ncc3c(N4CC5(C4)OCc4cc(Cl)ccc45)nc(Cl)nc32)[C@H](O)[C@@H]1O [Example 5, ((((2R,3S,4R,5R)-5-(6-chloro-4-(5′-chloro-3′H-spiro[azetidine-3,1′-isobenzofuran]-1-yl)-1H-pyrazolo[3,4-d]pyrimidin-1-yl)-3,4-dihydroxytetrahydrofuran-2-yl)methoxy)methyl)phosphonic acid] | 0.074 |
| O=P(O)(O)COC[C@H]1O[C@@H](n2ncc3c(N4CC5(CCc6ccc(F)cc65)C4)nc(Cl)nc32)[C@H](O)[C@@H]1O [Example 6, ((((2R,3S,4R,5R)-5-(6-chloro-4-(6′-fluoro-2′,3′-dihydrospiro[azetidine-3,1′-inden]-1-yl)-1H-pyrazolo[3,4-d]pyrimidin-1-yl)-3,4-dihydroxytetrahydrofuran-2-yl)methoxy)methyl)phosphonic acid] | 0.25 |
| O=P(COC[C@H]1O[C@@H](n2ncc3c(N4CC5(CCc6ccccc65)C4)nc(Cl)nc32)[C@H](O)[C@@H]1O)(Oc1ccccc1)Oc1ccccc1 [Example 10, diphenyl((((2R,3S,4R,5R)-5-(6-chloro-4-(2′,3′-dihydrospiro[azetidine-3,1′-inden]-1-yl)-1H-pyrazolo[3,4-d]pyrimidin-1-yl)-3,4-dihydroxytetrahydrofuran-2-yl)methoxy)methyl)phosphonate] | 7.6 |
| O=P(O)(COC[C@H]1O[C@@H](n2ncc3c(N4CC5(CCc6ccccc65)C4)nc(Cl)nc32)[C@H](O)[C@@H]1O)Oc1ccccc1 [Example 11, phenyl hydrogen ((((2R,3S,4R,5R)-5-(6-chloro-4-(2′,3′-dihydrospiro[azetidine-3,1′-inden]-1-yl)-1H-pyrazolo[3,4-d]pyrimidin-1-yl)-3,4-dihydroxytetrahydrofuran-2-yl)methoxy)methyl)phosphonate] | 0.9 |

Next, values leading:

| IC50 [nM] | SMILES |
| --- | --- |
| 0.13 | COc1ccc2c(c1)CCC21CN(c2nc(Cl)nc3c2cnn3[C@@H]2O[C@H](COCP(=O)(O)O)[C@@H](O)[C@H]2O)C1 [Example 7, ((((2R,3S,4R,5R)-5-(6-chloro-4-(5′-methoxy-2′,3′-dihydrospiro[azetidine-3,1′-inden]-1-yl)-1H-pyrazolo[3,4-d]pyrimidin-1-yl)-3,4-dihydroxytetrahydrofuran-2-yl)methoxy)methyl)phosphonic acid] |
| 8.5 | CC(OC(=O)C(C)(C)C)OP(=O)(O)COC[C@H]1O[C@@H](n2ncc3c(N4CC5(CCc6ccccc65)C4)nc(Cl)nc32)[C@H](O)[C@@H]1O (stereo partly drawn) [Example 9, 1-((((((2R,3S,4R,5R)-5-(6-chloro-4-(2′,3′-dihydrospiro[azetidine-3,1′-inden]-1-yl)-1H-pyrazolo[3,4-d]pyrimidin-1-yl)-3,4-dihydroxytetrahydrofuran-2-yl)methoxy)methyl)(hydroxy)phosphoryl)oxy)ethyl pivalate] |
| 300 | O=P(O)(O)Cc1cccc(OC[C@H]2O[C@@H](n3ncc4c(N5CC6(CCCCC6)C5)nc(Cl)nc43)[C@H](O)[C@@H]2O)c1 [Example 12, (3-(((2R,3S,4R,5R)-5-(6-chloro-4-(2-azaspiro[3.5]nonan-2-yl)-1H-pyrazolo[3,4-d]pyrimidin-1-yl)-3,4-dihydroxytetrahydrofuran-2-yl)methoxy)benzyl)phosphonic acid] |

system: human peripheral blood mononuclear cells (PBMCs); experiment: IFNγ cytokine production in human PBMCs with AMP and CD3/CD28 antibody beads (HTRF); type: cell-based; settings: compound 10 μM, 50 μM AMP, 72 hours
Experimental: Test Example 2 Determination of Compound of the Present Invention Modulates Cellular Immune Function by IFNγ Cytokine Production
Lymphocyte medium and TexMACS medium were incubated in a water bath at 37° C. 10 mL of incubated lymphocyte medium was added to a 50 mL conical tube. The cells were quickly thawed in a 37° C. water bath and transferred to a 50 ml tube and the tube gently swirled. The cell suspension was centrifuged at 1100 rpm for 10 minutes at room temperature. The supernatant was removed, and the cell pellet gently resuspended in 10 mL of TexMACS medium. The cells were counted to make 5×10^5 cells/ml. 100 μL of 5×10^5 cells/ml of PBMCs seeds, inserted into a 96-well plate (cell density of 50,000 cells/well), and the most outer edge wells of the 96-well plate were filled with water and were not used for the test. […] Read the values of 665 nm and 620 nm on a PHERAstar FSX Multilabel Reader.
Calculated ratio=(signal at 665 nm/signal at 620 nm)×10^4, which reflected the “raw signal”. […] The concentration of IFNγ cytokine of each sample corresponding to the standard curve was calculated. […]
The production of IFNγ cytokines by the compounds of the present invention was measured by the above test. […]

| SMILES | Response rate of IFNγ cytokines by a compound (fold) as compared to vehicle control (DMSO) [folds] |
| --- | --- |
| O=P(O)(O)COC[C@H]1O[C@@H](n2ncc3c(N4CC5(CCCCC5)C4)nc(Cl)nc32)[C@H](O)[C@@H]1O [Example 1, ((((2R,3S,4R,5R)-5-(6-chloro-4-(2-azaspiro[3.5]nonan-2-yl)-1H-pyrazolo[3,4-d]pyrimidin-1-yl)-3,4-dihydroxytetrahydrofuran-2-yl)methoxy)methyl)phosphonic acid] | 4.1 |
| O=P(O)(O)COC[C@H]1O[C@@H](n2ncc3c(N4CC5(CCc6ccccc65)C4)nc(Cl)nc32)[C@H](O)[C@@H]1O [Example 2, ((((2R,3S,4R,5R)-5-(6-chloro-4-(2′,3′-dihydrospiro[azetidine-3,1′-inden]-1-yl)-1H-pyrazolo[3,4-d]pyrimidin-1-yl)-3,4-dihydroxytetrahydrofuran-2-yl)methoxy)methyl)phosphonic acid] | 4.3 |

— patent US11332492B2, “CD73 inhibitors and therapeutic uses thereof” (Jiangsu Hengrui Medicine Co., Ltd., priority 2018, dated 2022)
